Reference: patent publication US20260256789A1, “METHODS FOR TREATMENT OF CANCER” (Frontier Medicines Corporation, priority 2022, published 2026)

Target: T1, KRAS G12C (GMPPNP-loaded) and cRAF Ras-binding domain (Homo sapiens, UniProt P01116, C118S/C51S/C80L/G12C)
T1 construct: truncated version comprising amino acids 1-169
Assay: Inhibition of KRAS G12C and cRAF binding (AlphaScreen)
Conditions: KRAS G12C preloaded with GTP analogue GMPPNP, 2 hours preincubation
Method in brief: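 Compounds (10-point, 1:3 from 50 μM; 2% DMSO) were incubated 2 h at room temperature with 0.5 nM GMPPNP-preloaded truncated Cys-light KRAS G12C, then 60-90 min with 0.75 nM GST-RBD of cRAF and AlphaScreen beads. Signal at 570 nm gave IC50 by 4-parameter regression, and a biotin-AviTag-GST counter assay excluded interference with the AlphaScreen readout.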

T1 sequence (P01116 1-169 isoform P01116-2 G12C/C51S/C80L/C118S): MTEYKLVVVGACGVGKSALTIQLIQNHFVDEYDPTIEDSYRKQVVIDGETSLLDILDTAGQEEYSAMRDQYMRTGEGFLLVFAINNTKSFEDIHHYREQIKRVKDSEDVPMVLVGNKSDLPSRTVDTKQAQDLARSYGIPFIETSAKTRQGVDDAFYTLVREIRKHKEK

IC50 | Compound
10 to 100 nM | C=CC(=O)N1CC(CN(C)c2nc(OC[C@@]34CCCN3C[C@H](F)C4)nc3c(F)c(-c4nc(N)cc(C)c4C(F)(F)F)ncc23)C1 [Example 64, 1-(3-(((7-(6-amino-4-methyl-3-(trifluoromethyl)pyridin-2-yl)-8-fluoro-2-(((2R,7aS)-2-fluorotetrahydro-1H-pyrrolizin-7a(5H)-yl)methoxy)pyrido[4,3-d]pyrimidin-4-yl)(methyl)amino)methyl)azetidin-1-yl)prop-2-en-1-one]
< 10 nM | C=CC(=O)N1CC[C@@H](N(C)c2nc(OC[C@@]34CCCN3C[C@H](F)C4)nc3c(F)c(-c4cc(O)cc(Cl)c4C(F)(F)F)ncc23)C1 [Example 248]
< 10 nM | Cc1cc(N)nc(-c2ncc3c(N(C)[C@@H]4CCN(C(=O)/C=C/[C@@H]5CCN5C)C4)nc(OC[C@@]45CCCN4C[C@H](F)C5)nc3c2F)c1C(F)(F)F [Example 83]
≥ 500 nM | CC(C)c1noc(/C=C/C(=O)N2CC[C@@H](N(C)c3nc(OC[C@@]45CCCN4C[C@H](F)C5)nc4c(F)c(-c5nc(N)ccc5F)ncc34)C2)n1 [Example 178, (E)-1-((R)-3-((7-(6-amino-3-fluoropyridin-2-yl)-8-fluoro-2-(((2R,7aS)-2-fluorotetrahydro-1H-pyrrolizin-7a(5H)-yl)methoxy)pyrido[4,3-d]pyrimidin-4-yl)(methyl)amino)pyrrolidin-1-yl)-3-(3-isopropyl-1,2,4-oxadiazol-5-yl)prop-2-en-1-one]
10 to 100 nM | Cc1nsc(/C=C/C(=O)N2CC[C@@H](N(C)c3nc(OC[C@@]45CCCN4C[C@H](F)C5)nc4c3C[C@@H](C)[C@H](c3nc(N)cc(C)c3C(F)(F)F)C4)C2)n1 [Example 158, (E)-1-((R)-3-(((6R,7R)-7-(6-amino-4-methyl-3-(trifluoromethyl)pyridin-2-yl)-2-(((2R,7aS)-2-fluorotetrahydro-1H-pyrrolizin-7a(5H)-yl)methoxy)-6-methyl-5,6,7,8-tetrahydroquinazolin-4-yl)(methyl)amino)pyrrolidin-1-yl)-3-(3-methyl-1,2,4-thiadiazol-5-yl)prop-2-en-1-one]
< 10 nM | Cc1cc(N)nc(-c2ncc3c(N(C)[C@@H]4CCN(C(=O)/C=C/[C@@H]5CCN5C)C4)nc(OC[C@@]45CCCN4C[C@H](F)C5)nc3c2F)c1C(F)(F)F (single isomer, unassigned) [Example 27]
≥ 500 nM | C=CC(=O)N1CC[C@@H](N(C)c2nc(OC[C@@]34CCCN3C[C@H](F)C4)nc3c(F)c(-c4c[nH]nc4C(F)(F)F)ncc23)C1 [Example 196]
10 to 100 nM | Cc1ccc(N)nc1-c1ncc2c(N(C)[C@@H]3CCN(C(=O)/C=C/c4nc(C(C)C)no4)C3)nc(OC[C@@]34CCCN3C[C@H](F)C4)nc2c1F [Example 86]
≥ 500 nM | C=CC(=O)N1CC[C@@H](N(C)c2nc(OC[C@@]34CCCN3C[C@H](F)C4)nc3c2CCN(c2nc(N)cc(C)c2C(F)(F)F)C3)C1 [Example 111, 1-((R)-3-((7-(6-amino-4-methyl-3-(trifluoromethyl)pyridin-2-yl)-2-(((2R,7aS)-2-fluorotetrahydro-1H-pyrrolizin-7a(5H)-yl)methoxy)-5,6,7,8-tetrahydropyrido[3,4-d]pyrimidin-4-yl)(methyl)amino)pyrrolidin-1-yl)prop-2-en-1-one]
100 to 500 nM | C=CC(=O)N1CC[C@@H](N(C)c2nc(OC[C@@]34CCCN3C[C@H](F)C4)nc3c2CC(C)C(c2nc(N)cc(C)c2C(F)(F)F)C3)C1 (stereo partly drawn) [Example 68, 1-((3R)-3-((7-(6-amino-4-methyl-3-(trifluoromethyl)pyridin-2-yl)-2-(((2R,7aS)-2-fluorohexahydro-1H-pyrrolizin-7a-yl)methoxy)-6-methyl-5,6,7,8-tetrahydroquinazolin-4-yl)(methyl)amino)pyrrolidin-1-yl)prop-2-en-1-one]
10 to 100 nM | C=CC(=O)N1CC[C@@H](N(C)c2nc(OC[C@@]34CCCN3C[C@H](F)C4)nc3c(F)c(-c4nc(N)cc(C)c4C(F)(F)F)ncc23)C1 [Example 72, 1-((R)-3-((7-(6-amino-4-methyl-3-(trifluoromethyl)pyridin-2-yl)-8-fluoro-2-(((2R,7aS)-2-fluorotetrahydro-1H-pyrrolizin-7a(5H)-yl)methoxy)pyrido[4,3-d]pyrimidin-4-yl)(methyl)amino)pyrrolidin-1-yl)prop-2-en-1-one]
10 to 100 nM | Cc1cc(N)nc(-c2ncc3c(N(C)CC4CN(C(=O)C#CCN5CCOCC5)C4)nc(OC[C@@]45CCCN4C[C@H](F)C5)nc3c2F)c1C(F)(F)F [Example 114]
10 to 100 nM | Cc1cc(N)nc(-c2ncc3c(N(C)[C@@H]4CCN(C(=O)/C=C/CN(C)C)C4)nc(OC[C@@]45CCCN4C[C@H](F)C5)nc3c2F)c1C(F)(F)F [Example 62, (E)-1-((R)-3-((7-(6-amino-4-methyl-3-(trifluoromethyl)pyridin-2-yl)-8-fluoro-2-(((2R,7aS)-2-fluorohexahydro-1H-pyrrolizin-7a-yl)methoxy)pyrido[4,3-d]pyrimidin-4-yl)(methyl)amino)pyrrolidin-1-yl)-4-(dimethylamino)but-2-en-1-one]
< 10 nM | Cc1cc(N)nc(-c2ncc3c(N(C)[C@@H]4CCN(C(=O)/C=C/C5CCN5C)C4)nc(OC[C@@]45CCCN4C[C@H](F)C5)nc3c2F)c1C(F)(F)F (stereo in doubt) [Example 134]

The next lines start with the compound.

Compound | IC50
Cc1cc(N)nc([C@H]2Cc3nc(OC[C@@]45CCCN4C[C@H](F)C5)nc(N(C)[C@@H]4CCN(C(=O)/C=C/c5nc(C(C)(C)O)no5)C4)c3C[C@@H]2C)c1C(F)(F)F [Example 94, (E)-1-((R)-3-(((6S,7S)-7-(6-amino-4-methyl-3-(trifluoromethyl)pyridin-2-yl)-2-(((2R,7aS)-2-fluorotetrahydro-1H-pyrrolizin-7a(5H)-yl)methoxy)-6-methyl-5,6,7,8-tetrahydroquinazolin-4-yl)(methyl)amino)pyrrolidin-1-yl)-3-(3-(2-hydroxypropan-2-yl)-1,2,4-oxadiazol-5-yl)prop-2-en-1-one] | ≥ 500 nM
C=CC(=O)N1CC(CN(C)c2nc(OCC34CCCN3CCC4)nc3c(F)c(-c4nc(N)cc(C)c4C4CC4)ncc23)C1 [Example 131, 1-(3-(((7-(6-amino-3-cyclopropyl-4-methylpyridin-2-yl)-8-fluoro-2-((tetrahydro-1H-pyrrolizin-7a(5H)-yl)methoxy)pyrido[4,3-d]pyrimidin-4-yl)(methyl)amino)methyl)azetidin-1-yl)prop-2-en-1-one] | ≥ 500 nM
CN(c1nc(OCC23CCCN2CCC3)nc2c(F)c(-c3nc(N)cc4cccc(F)c34)ncc12)[C@@H]1CCN(C#N)C1 [Example 70, (R)-3-((7-(3-amino-8-fluoroisoquinolin-1-yl)-8-fluoro-2-((hexahydro-1H-pyrrolizin-7a-yl)methoxy)pyrido[4,3-d]pyrimidin-4-yl)(methyl)amino)pyrrolidine-1-carbonitrile] | 100 to 500 nM
C=CC(=O)N1CC[C@@H](N(C)c2nc(OC[C@@]34CCCN3C[C@H](F)C4)nc3c(F)c(-c4cc(O)cc(F)c4C4CC4)ncc23)C1 [Example 206] | < 10 nM
C=CC(=O)N1CC[C@@H](N(C)c2nc(OC[C@@]34CCCN3C[C@H](F)C4)nc3c(F)c(-c4cccc(Cl)c4C(F)(F)F)ncc23)[C@H]1C (single isomer, unassigned) [Example 78] | 10 to 100 nM
C=CC(=O)N1CC(CN(C)c2nc(OCC34CCCN3CCC4)nc3c2C[C@@H](C)[C@H](c2nc(N)cc(C)c2C(F)(F)F)C3)C1 [Example 199] | ≥ 500 nM
Cc1ncc(F)c(/C=C/C(=O)N2CC[C@@H](N(C)c3nc(OC[C@@]45CCCN4C[C@H](F)C5)nc4c(F)c(-c5cccc(Cl)c5C5CC5)ncc34)C2)n1 [Example 258] | 100 to 500 nM
CN(CC1CN(C(=O)/C=C/c2nc(C(C)(F)F)no2)C1)c1nc(OC[C@@]23CCCN2C[C@H](F)C3)nc2c(F)c(-c3nc(N)cc4cccc(Cl)c34)ncc12 [Example 169, (E)-1-(3-(((7-(3-amino-8-chloroisoquinolin-1-yl)-8-fluoro-2-(((2R,7aS)-2-fluorotetrahydro-1H-pyrrolizin-7a(5H)-yl)methoxy)pyrido[4,3-d]pyrimidin-4-yl)(methyl)amino)methyl)azetidin-1-yl)-3-(3-(1,1-difluoroethyl)-1,2,4-oxadiazol-5-yl)prop-2-en-1-one] | < 10 nM
C=CC(=O)N1CC[C@@H](N(C)c2nc(OC[C@@]34CCCN3C[C@H](F)C4)nc3c(F)c(-c4cccc(C(F)F)c4C4CC4)ncc23)C1 [Example 195] | ≥ 500 nM
C=CC(=O)N1CC[C@@H](N(C)c2nc(OC[C@@]34CCCN3C[C@H](F)C4)nc3c(F)c(-c4cc(OC)cc5nccnc45)ncc23)C1 [Example 230] | ≥ 500 nM
C=CC(=O)N1CC[C@H](O)[C@@H](N(C)c2nc(OC[C@@]34CCCN3C[C@H](F)C4)nc3c(F)c(-c4cccc(Cl)c4C4CC4)ncc23)C1 [Example 237] | ≥ 500 nM
Cc1noc(/C=C/C(=O)N2CC[C@@H](N(C)c3nc(OCC45CCCN4CCC5)nc4c3C[C@@H](C)[C@H](c3nc(N)cc(C)c3C(F)(F)F)C4)C2)n1 (single isomer, unassigned) [Compound 9] | 100 to 500 nM
CN(c1nc(OC[C@@]23CCCN2C[C@H](F)C3)nc2c(F)c(-c3cccc(Cl)c3C3CC3)ncc12)[C@@H]1CCN(C(=O)C#CCN2CC3CCC(C2)O3)C1 [Example 257] | 10 to 100 nM
CN(c1nc(OCC23CCCN2CCC3)nc2c(F)c(-c3nc(N)cc4cccc(Cl)c34)ncc12)[C@@H]1CCN(C#N)C1 [Example 66, (R)-3-((7-(3-amino-8-chloroisoquinolin-1-yl)-8-fluoro-2-((hexahydro-1H-pyrrolizin-7a-yl)methoxy)pyrido[4,3-d]pyrimidin-4-yl)(methyl)amino)pyrrolidine-1-carbonitrile] | 10 to 100 nM
CO[C@H]1CCN(C/C=C/C(=O)N2CC[C@@H](N(C)c3nc(OC[C@@]45CCCN4C[C@H](F)C5)nc4c(F)c(-c5cccc(Cl)c5C5CC5)ncc34)C2)C1 [Example 210] | 10 to 100 nM
